Experimental findings from paper PMC8402075, “Synthesis and Antiplasmodial Activity of Bisindolylcyclobutenediones” (Molecules, 2021) are described below.

For orientation: inhibition means the drop in the measured response relative to a control, in per cent. As usually defined, the Inhibition is how much of the control response was suppressed. A higher Inhibition goes with a response far below the control.

Read-outs that look alike come from different tables or passages of the source.

The test system of experiment [1] is P. falciparum (NF54-luc strain) erythrocytic stages. Kind of experiment: Luciferase-based viability screening for antiplasmodial activity. Format: cell-based, Plasmodium falciparum. The conditions noted are these: for inhibition at 3 µM: read-out: Inhibition at 3 µM [%]. As for the experimental part:
All synthesized new bisindolylcyclobutenediones 2a–2ar and the related bisindolylmaleimide 8 [37] were screened for inhibition of erythrocytic stages of Plasmodium falciparum employing a bioluminescence-based viability assay on transgenic parasites that constitutively express luciferase (PfNF54-luc). Initially, the compounds were evaluated in single-dose test runs (3 µM). If >20% viability inhibition was observed, dose-response curves were generated and IC50 values were calculated (Table 1). […] The bisindolylmaleimide 8 [37] inhibited the parasites in a single-digit micromolar concentration, similar to many of the bisindolylcyclobutenediones in the study. Because the bisindolylcyclobutenediones 2 display a higher degree of structural novelty, only this compound class was further pursued for its antiplasmodial activity. […] These structural features were considered unfavorable for orientations as illustrated in Figure 2 with 2a and Pfmap-2, PfPK5, PfCDPK2, Pflammer, and PfPK7, respectively. However, a structure generated for 2a in PfGSK-3 in which the indole units are oriented perpendicular to each other (Figure 2a) was considered compatible with the indicated substitution pattern. Consequently, the potent antiplasmodial derivatives 2k, 2ad, and 2ae were tested in a kinase Glo assay for inhibition of recombinant PfGSK-3. […] For the compounds with particularly potent antiplasmodial activity, cytotoxicity was also determined using the human cell line THP-1 to assess selectivity with respect to parasite cells (Table 2).
Screening for the antiplasmodial activity of test compounds was performed by luciferase-based viability assays as reported previously. In brief, asexual erythrocytic stages of transgenic NF54-luc P. falciparum were cultured as described elsewhere. Parasite cultures with parasitaemia of 0.5–1% were incubated in the presence of 3 µM test compounds for 48 h. After the subsequent addition of Bright-Glo substrate solution (Promega, Madison, WI), the resulting luminescence was measured. Untreated cultures (0.01% DMSO) were used as negative controls. Experiments were performed in triplicate and were repeated as a whole at least twice. Blasticidin (Sigma-Aldrich, St. Louis, MO, USA) was included as a positive control.

The subject of experiment [2] is human THP-1 cell line. Kind of experiment: Cytotoxicity assay on human THP-1 cell line (Alamar Blue). Format: cell-based. To be noted: for Selectivity Index (SI) = IC50, THP-1/IC50, Pf: THP-1 versus P. falciparum NF54-luc; for IC50: human THP-1 cell line, 48 h, Alamar Blue. As for the experimental part: The cytotoxicity of selected antiplasmodial bisindolylcyclobutenediones was determined against THP-1 cells following a protocol described previously. In brief, THP-1 cells were incubated with test compounds in serial compound dilutions in the presence of 0.01% DMSO at 37 °C. After 48 h, Alamar Blue was added, and after 4 h the fluorescence was read (λex = 544 nm, λem = 590 nm) using a microplate reader. THP-1 cells in wells containing medium plus 0.01% DMSO served as negative controls. Experiments were performed in triplicate and were repeated as a whole at least twice.
(Alamar Blue is a resazurin reagent that responds to reducing activity.)

Setting [3] is: Plasmodium falciparum, NF54, 48 h, read-out: IC50 [µM], concentration for 50% inhibition of P. falciparum (NF54-luc strain) erythrocytic stages.
[4] abbreviates: Plasmodium falciparum, NF54, 48 h.
Setting [5] is: Plasmodium falciparum, NF54, read-out: IC50, Pf [µM].

Regarding `O=c1c(-c2c[nH]c3ccccc23)c(-c2c[nH]c3ccccc23)c1=O` [2a, 3,4-Bis(1H-indol-3-yl)cyclobut-3-ene-1,2-dione], in experiment [1] (setting [3]), the IC50 stood at 8.33 µM.
Turning to `COc1ccc2[nH]cc(-c3c(-c4c[nH]c5ccc(F)cc45)c(=O)c3=O)c2c1` [2ab, 3-(5-Fluoro-1H-indol-3-yl)-4-(5-methoxy-1H-indol-3-yl)cyclobut-3-ene-1,2-dione], the inhibition at 3 µM in experiment [1] (setting [4]) is 19.2 ± 3.1%.
For `COc1ccc2[nH]cc(-c3c(-c4c[nH]c5ccc(Cl)cc45)c(=O)c3=O)c2c1` [2ac, 3-(5-Chloro-1H-indol-3-yl)-4-(5-methoxy-1H-indol-3-yl)cyclobut-3-ene-1,2-dione], in experiment [1] (setting [3]), the IC50 is 1.52 µM.
Turning to `COc1ccc2[nH]cc(-c3c(-c4cn(C)c5ccc(Br)cc45)c(=O)c3=O)c2c1` [2ag, 3-(5-Bromo-1-methyl-1H-indol-3-yl)-4-(5-methoxy-1H-indol-3-yl)cyclobut-3-ene-1,2-dione], in experiment [1] (setting [4]), the inhibition at 3 µM was -0.06 ± 2.43%. For the same compound, the IC50 in experiment [1] (Plasmodium falciparum, NF54, read-out: IC50 P. falciparum (quoted in the discussion)) was more than 10 µM.
In the case of `COc1ccc2[nH]cc(-c3c(-c4c[nH]c5ccc(C#N)cc45)c(=O)c3=O)c2c1` [2ah, 3-[2-(5-Methoxy-1H-indol-3-yl)-3,4-dioxocyclobut-1-en-1-yl]-1H-indole-5-carbonitrile], the IC50 in experiment [1] (setting [3]) stood at 6.92 µM.
For `COc1ccc2[nH]cc(-c3c(-c4c[nH]c5c(Cl)cccc45)c(=O)c3=O)c2c1` [2ai, 3-(7-Chloro-1H-indol-3-yl)-4-(5-methoxy-1H-indol-3-yl)cyclobut-3-ene-1,2-dione], in experiment [2], the “Selectivity Index (SI) = IC50, THP-1/IC50, Pf” value (“Selectivity Index (SI) = IC50” below) was found to be 259. Moreover, the results for the IC50 in experiment [2], in experiment [1] (setting [3]) and in experiment [1] (setting [5]) were 179000 nM, 0.691 µM and 0.69 µM, respectively. In experiment [1] (setting [4]), the inhibition at 3 µM was 84.5 ± 1%.
Taken in the same sequence, the figures for `COc1ccc2[nH]cc(-c3c(-c4c[nH]c5c(Br)cccc45)c(=O)c3=O)c2c1` [2aj, 3-(7-Bromo-1H-indol-3-yl)-4-(5-methoxy-1H-indol-3-yl)cyclobut-3-ene-1,2-dione] were 4.7, 1420 nM, 0.296 µM, 0.3 µM and 99.5 ± 0.4%.
`COc1ccc2[nH]cc(-c3c(-c4c[nH]c5c(I)cccc45)c(=O)c3=O)c2c1` [2ak, 3-(7-Iodo-1H-indol-3-yl)-4-(5-methoxy-1H-indol-3-yl)cyclobut-3-ene-1,2-dione]: the “Selectivity Index (SI) = IC50” value in experiment [2] turned out to be 7.0. For the same compound, the IC50 came to 840 nM in experiment [2], 0.116 µM in experiment [1] (setting [3]) and 0.12 µM in experiment [1] (setting [5]). For the same compound, the inhibition at 3 µM in experiment [1] (setting [4]) was determined as 98.8 ± 1.2%.
Turning to `CCc1cccc2c(-c3c(-c4c[nH]c5ccc(OC)cc45)c(=O)c3=O)c[nH]c12` [2al, 3-(7-Ethyl-1H-indol-3-yl)-4-(5-methoxy-1H-indol-3-yl)cyclobut-3-ene-1,2-dione], in experiment [2], the “Selectivity Index (SI) = IC50” value is on record as 1.4. Further, the figures for the IC50 in experiment [2], in experiment [1] (setting [3]) and in experiment [1] (setting [5]) were 700 nM, 0.511 µM and 0.51 µM, respectively. The inhibition at 3 µM in experiment [1] (setting [4]) turned out to be 87 ± 0.5%.
In the case of `COc1ccc2[nH]cc(-c3c(-c4c[nH]c5cc(Br)ccc45)c(=O)c3=O)c2c1` [2am, 3-(6-Bromo-1H-indol-3-yl)-4-(5-methoxy-1H-indol-3-yl)cyclobut-3-ene-1,2-dione], the inhibition at 3 µM in experiment [1] (setting [4]) is 9.55 ± 5.8%.
Take `COc1ccc2[nH]cc(-c3c(-c4c[nH]c5cccc(Br)c45)c(=O)c3=O)c2c1` [2an, 3-(4-Bromo-1H-indol-3-yl)-4-(5-methoxy-1H-indol-3-yl)cyclobut-3-en-1,2-dione]: in experiment [1] (setting [4]), the inhibition at 3 µM came out at 25.7 ± 2.7%.
Still for that read-out and setting: under `O=c1c(-c2c[nH]c3ccc(O)cc23)c(-c2c[nH]c3ccc(Br)cc23)c1=O` [2ap, 3-(5-Bromo-1H-indol-3-yl)-4-(5-hydroxy-1H-indol-3-yl)cyclobut-3-ene-1,2-dione] stands 2.52 ± 1.4%; under `O=c1c(-c2c[nH]c3ccc(I)cc23)c(-c2c[nH]c3ccc(I)cc23)c1=O` [2aq, 3,4-Bis(5-iodo-1H-indol-3-yl)cyclobut-3-ene-1,2-dione], 1.79 ± 1.8%.
Regarding `O=c1c(-c2c[nH]c3ccccc23)c(-c2c[nH]c3ccc(Cl)cc23)c1=O` [2c, 3-(5-Chloro-1H-indol-3-yl)-4-(1H-indol-3-yl)cyclobut-3-ene-1,2-dione], in experiment [1] (setting [3]), the IC50 turned out to be 4.23 µM.
As to `O=c1c(-c2c[nH]c3ccccc23)c(-c2c[nH]c3ccc(OCc4ccccc4)cc23)c1=O` [2e, 3-[5-(Benzyloxy)-1H-indol-3-yl]-4-(1H-indol-3-yl)cyclobut-3-ene-1,2-dione], the inhibition at 3 µM in experiment [1] (setting [4]) was -4.43 ± 10.6%.
As for `N#Cc1ccc2[nH]cc(-c3c(-c4c[nH]c5ccccc45)c(=O)c3=O)c2c1` [2f, 3-[2-(1H-Indol-3-yl)-3,4-dioxocyclobut-1-ene-1-yl]-1H-indol-5-carbonitrile], in experiment [1] (setting [3]), the IC50 worked out at 6.72 µM.
As to `Cc1[nH]c2ccccc2c1-c1c(-c2c[nH]c3ccccc23)c(=O)c1=O` [2g, 3-(1H-Indol-3-yl)-4-(2-methyl-1H-indol-3-yl)cyclobut-3-ene-1,2-dione], the IC50 in experiment [1] (setting [3]) was more than 30 µM.
Consider `Cn1cc(-c2c(-c3cn(C)c4ccccc34)c(=O)c2=O)c2ccccc21` [2i, 3,4-Bis(1-methyl-1H-indol-3-yl)cyclobut-3-ene-1,2-dione], for which the inhibition at 3 µM in experiment [1] (setting [4]) was determined as 3.53 ± 1.7%.
On to `O=c1c(-c2c(-c3ccccc3)[nH]c3ccccc23)c(-c2c(-c3ccccc3)[nH]c3ccccc23)c1=O` [2m, 3,4-Bis(2-phenyl-1H-indol-3-yl)cyclobut-3-ene-1,2-dione], for which the IC50 in experiment [1] (setting [3]) stood at 2.47 µM.
On the same count and under the same terms, under `O=c1c(-c2c[nH]c3ccc(Br)cc23)c(-c2c[nH]c3ccc(Br)cc23)c1=O` [2o, 3,4-Bis(5-bromo-1H-indol-3-yl)cyclobut-3-ene-1,2-dione] stands more than 30 µM.
For `N#Cc1ccc2[nH]cc(-c3c(-c4c[nH]c5ccc(C#N)cc45)c(=O)c3=O)c2c1` [2p, 3,3’-(3,4-Dioxocyclobut-1-ene-1,2-diyl)bis(1H-indole-5-carbonitrile)], the inhibition at 3 µM in experiment [1] (setting [4]) is -3.1 ± 0.9%.
Same read-out and setting: under `Cn1cc(-c2c(-c3c[nH]c4ccc(Br)cc34)c(=O)c2=O)c2ccccc21` [2t, 3-(5-Bromo-1H-indol-3-yl)-4-(1-methyl-1H-indol-3-yl)cyclobut-3-ene-1,2-dione] stands 1.38 ± 3.3%.
With `COc1ccc2[nH]cc(-c3c(-c4c(C)[nH]c5ccccc45)c(=O)c3=O)c2c1` [2v, 3-(5-Methoxy-1H-indol-3-yl)-4-(2-methyl-1H-indol-3-yl)cyclobut-3-ene-1,2-dione], in experiment [1] (setting [3]), the IC50 is 10 µM.
Still for that read-out and setting: under `Cc1[nH]c2ccccc2c1-c1c(-c2c(-c3ccccc3)[nH]c3ccccc23)c(=O)c1=O` [2w, 3-(2-Methyl-1H-indol-3-yl)-4-(2-phenyl-1H-indol-3-yl)cyclobut-3-ene-1,2-dione] stands 9.26 µM.
The same measure, in the same setting: under `Cc1[nH]c2ccccc2c1-c1c(-c2c[nH]c3ccc(Br)cc23)c(=O)c1=O` [2x, 3-(5-Bromo-1H-indol-3-yl)-4-(2-methyl-1H-indol-3-yl)cyclobut-3-ene-1,2-dione] stands more than 30 µM.
With `CN(CC[C@H](N)CC(=O)N[C@H]1C=C[C@H](n2ccc(N)nc2=O)O[C@@H]1C(=O)O)C(=N)N` [BSD, Blasticidin, reference compound], in experiment [1] (3 µM test compound, 48 h, P. falciparum NF54-luc erythrocytic stages), the “Inhibition at 3 µM [%]” value stood at 97.6 ± 0.5%. For the same compound, in experiment [1] (Table 1, 48 h incubation, luminescence viability readout, read-out: IC50 [µM], concentration for 50% inhibition of P. falciparum (NF54-luc strain) erythrocytic stages), the IC50 is 0.288 µM.
Take `CN1C(=O)C(c2c[nH]c3ccccc23)=C(c2c[nH]c3ccccc23)C1=O` [compound 8, reference compound]: the IC50 in experiment [1] (setting [3]) turned out to be 4 µM. Besides, the inhibition at 3 µM in experiment [1] (setting [4]) came out at 34.6 ± 0.8%.
